# Reference: the supplement of paper PMC10307832
# Legend:
# Assay in all cases: relative viability (nuclei count vs DMSO), 5 days (fraction); higher = more cells survive
# 201T = tested on: 201T
# Outline: (§1)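 Lung cancer cell lines, seeded in 1536-well plates, were treated the following day by pin tool with a single drug or with five library-drug doses (not always all listed) in √10 steps on top of a fixed anchor-drug dose. Cells were fixed and nuclei stained in one step after 5 days, and nuclei were counted. Relative viability is the nuclei count for treated wells divided by that for vehicle wells, reported as medians of duplicate plates.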
# A-427 = tested on: A-427
# Outline: as §1
# BEN = tested on: BEN
# Outline: as §1
# COR-L23 = tested on: COR-L23
# Outline: as §1
# EKVX = tested on: EKVX
# Outline: as §1
# HARA = tested on: HARA
# Outline: as §1
# HCC-15 = tested on: HCC-15
# Outline: as §1
# HCC-44 = tested on: HCC-44
# Outline: as §1
# HCC-827 = tested on: HCC-827
# Outline: as §1
# NCI-H1437 = tested on: NCI-H1437
# Outline: as §1
# NCI-H1650 = tested on: NCI-H1650
# Outline: as §1
smiles,measurement,setting,value
Nc1ccn([C@@H]2O[C@H](CO)[C@@H](O)[C@@H]2O)c(=O)n1 [Cytarabine] + CC(=O)Nc1cccc(-n2c(=O)n(C3CC3)c(=O)c3c(Nc4ccc(I)cc4F)n(C)c(=O)c(C)c32)c1 [Trametinib] (partner 0.02 µM),relative viability,201T; first compound 0.005 µM,0.728
same,relative viability,201T; first compound 0.01581 µM,0.724
same,relative viability,201T; first compound 0.05 µM,0.76
same,relative viability,201T; first compound 0.1581 µM,0.709
same,relative viability,201T; first compound 0.5 µM,0.694
same,relative viability,A-427; first compound 0.005 µM,0.714
same,relative viability,A-427; first compound 0.01581 µM,0.616
same,relative viability,A-427; first compound 0.05 µM,0.381
same,relative viability,A-427; first compound 0.1581 µM,0.273
same,relative viability,A-427; first compound 0.5 µM,0.225
same,relative viability,BEN; first compound 0.005 µM,1.08
same,relative viability,BEN; first compound 0.01581 µM,0.897
same,relative viability,BEN; first compound 0.05 µM,0.781
same,relative viability,BEN; first compound 0.1581 µM,0.553
same,relative viability,BEN; first compound 0.5 µM,0.372
same,relative viability,COR-L23; first compound 0.005 µM,0.71
same,relative viability,COR-L23; first compound 0.01581 µM,0.529
same,relative viability,COR-L23; first compound 0.05 µM,0.546
same,relative viability,COR-L23; first compound 0.1581 µM,0.304
same,relative viability,COR-L23; first compound 0.5 µM,0.203
same,relative viability,EKVX; first compound 0.005 µM,0.584
same,relative viability,EKVX; first compound 0.01581 µM,0.285
same,relative viability,EKVX; first compound 0.05 µM,0.295
same,relative viability,EKVX; first compound 0.5 µM,0.167
same,relative viability,HARA; first compound 0.005 µM,1.03
same,relative viability,HARA; first compound 0.01581 µM,0.354
same,relative viability,HARA; first compound 0.05 µM,0.335
same,relative viability,HARA; first compound 0.1581 µM,0.204
same,relative viability,HARA; first compound 0.5 µM,0.231
same,relative viability,HCC-15; first compound 0.005 µM,0.396
same,relative viability,HCC-15; first compound 0.01581 µM,0.281
same,relative viability,HCC-15; first compound 0.05 µM,0.381
same,relative viability,HCC-15; first compound 0.1581 µM,0.362
same,relative viability,HCC-15; first compound 0.5 µM,0.357
same,relative viability,HCC-44; first compound 0.005 µM,1.08
same,relative viability,HCC-44; first compound 0.01581 µM,1.03
same,relative viability,HCC-44; first compound 0.05 µM,1.08
same,relative viability,HCC-44; first compound 0.1581 µM,1.04
same,relative viability,HCC-44; first compound 0.5 µM,1.01
same,relative viability,HCC-827; first compound 0.005 µM,0.362
same,relative viability,HCC-827; first compound 0.01581 µM,0.313
same,relative viability,HCC-827; first compound 0.05 µM,0.239
same,relative viability,HCC-827; first compound 0.1581 µM,0.188
same,relative viability,HCC-827; first compound 0.5 µM,0.154
same,relative viability,NCI-H1437; first compound 0.005 µM,0.503
same,relative viability,NCI-H1437; first compound 0.01581 µM,0.406
same,relative viability,NCI-H1437; first compound 0.05 µM,0.416
same,relative viability,NCI-H1437; first compound 0.1581 µM,0.238
same,relative viability,NCI-H1437; first compound 0.5 µM,0.178
same,relative viability,NCI-H1650; first compound 0.005 µM,0.446
same,relative viability,NCI-H1650; first compound 0.01581 µM,0.419
same,relative viability,NCI-H1650; first compound 0.05 µM,0.452
same,relative viability,NCI-H1650; first compound 0.1581 µM,0.24
same,relative viability,NCI-H1650; first compound 0.5 µM,0.158
